Experiments:
[1] = In vitro skin flux, diclofenac from adhesive matrix systems (Example 8); type: in vitro ADME, human
Description: The effect of fatty acid lactylate salts on the permeation of a model acidic drug from some copolymer adhesive matrix systems was evaluated using diclofenac, a non-steroidal anti-inflammatory. The following matrix systems were prepared to test the effect of fatty acid lactylate salts on the permeation of this acidic compound from copolymer adhesives: (a) Diclofenac acid at 1.8% (w/w) in Durotak 87-2516 (National Starch and Chemical, New Jersey), a solvent based acrylic adhesive, at 92.8% (w/w) (Formula 8-A); (b) sodium diclofenac at 2.0% (w/w) in Nacor 72-9965 (National Starch and Chemical Company, New Jersey), an aqueous emulsion based acrylic adhesive, at 98% (w/w) (Formula 8-C); sodium diclofenac at 2.0% (w/w) and Robond PS-20 (Rohm and Haas, Philadelphia, Pa.) an aqueous emulsion based acrylic adhesive, at 93.6% (w/w) with polyvinylpyrrolidone (PVP, Kollidon 90, BASF, New Jersey) at 2.0% (w/w) as a thickening agent (Formula 8-E).

[2] = In vitro skin flux, testosterone from saturated aqueous solution (Example 1)
Description: (§1) In vitro skin flux studies were conducted using human cadaver epidermal membrane in modified Franz non-jacketed diffusion cells. […] This method involves the exposure of the full-thickness skin to water at 60° C. for a time period of 60 seconds. After this period, the epidermal membrane was gently peeled off the dermis and stored for later use in aluminum foil at -5° C.
Permeation experiments with aqueous solutions were performed using pre-saturated drug solutions containing excess drug solid (infinite dose). Prior to skin permeation experiments, the epidermal membrane was allowed to hydrate over night as described above. […]
(§2) The following sampling procedure was used for all dosage forms. At predetermined sampling time points, the entire contents of the receiver compartment were collected for drug quantitation and the receiver compartment was filled with fresh solution, taking care to eliminate any air bubbles at the skin/solution interface. The cumulative amount of drug permeated per unit area at any time t(Qt, μg/cm^2) was determined as follows: [formula] where CN is the concentration (μg/ml) of the drug in the receiver sample for the corresponding sample time, V is the volume of fluid in the receiver chamber (~6.3 cm^3), and A is the diffusional area of the cell (0.64 cm^2). […]

[3] = In vitro skin flux, testosterone from hydroalcoholic gel (Example 2)
Description: as §1
Permeation experiments with hydroalcoholic gels were performed using finite occluded doses. The occluded dose is an appropriate in vitro model for the application of a transdermal patch drug delivery system containing a liquid or gel reservoir.
Occluded dosing experiments were set-up according to the following procedure. […]
as §2

[4] = In vitro skin flux, clonidine from adhesive matrix systems (Example 7); type: in vitro ADME, human
Description: Permeation enhancement by a fatty acid lactylate salt was also evaluated with the basic antihypertensive drug clonidine in both free base and HCl acid addition salt forms. […] (Formulas 7-B, 7-D, 7-F and 7-H respectively).

[5] = In vitro skin flux, estradiol from organic solvent based adhesive matrix (Example 3); type: in vitro ADME, human; conditions: organic solvent based acrylic PSA; vs free acid form
Description: Pressure sensitive adhesive matrix systems prepared according to the following steps. First, the solids content of the adhesive solution (water or organic solvent based) was determined by placing a known weight of solution in a weighed aluminum dish and evaporating the solvents overnight in a 70° C. convection oven. The solid adhesive content of the solution was calculated by dividing the adhesive solid weight after drying by the initial total solution weight. Next, a weighed quantity of adhesive solution was added to a glass bottle and the drug substance, permeation enhancer, and other excipients were weighed and added to the adhesive solution in a quantity necessary to achieve the desired dry matrix film composition. […]
The following sampling procedure was used for all dosage forms. At predetermined sampling time points, the entire contents of the receiver compartment were collected for drug quantitation and the receiver compartment was filled with fresh solution, taking care to eliminate any air bubbles at the skin/solution interface. The cumulative amount of drug permeated per unit area at any time t(Qt, μg/cm^2) was determined as follows: [formula] where CN is the concentration (μg/ml) of the drug in the receiver sample for the corresponding sample time, V is the volume of fluid in the receiver chamber (~6.3 cm^3), and A is the diffusional area of the cell (0.64 cm^2).

[6] = In vitro skin flux, buspirone free base from organic solvent based acrylic adhesive (Example 5); type: in vitro ADME, human; conditions: organic solvent based acrylic PSA
Description: Permeation enhancement of the potassium salt form of lauroyl lactylic acid using buspirone free base as a model drug was evaluated in an organic solvent based acrylic pressure sensitive adhesive.

[7] = In vitro skin flux, buspirone HCl from aqueous emulsion based acrylic PSA (Example 4); type: in vitro ADME, human
Description: Permeation enhancement of the potassium salt form of lauroyl lactylic acid (R.I.T.A. Corp., Woodstock, Ill.) in an aqueous emulsion based acrylic pressure sensitive adhesive (PSA) was evaluated using buspirone HCl as a model drug.

Molecule | enhancement by free acid form compared with Formulas 8-D and 8-F (in words) ([1]; aqueous emulsion based adhesives, "will show") | enhancement by free acid form compared with Formula 8-B (in words) ([1]; solvent based adhesive, "will show") | permeation enhancement (in words) [2] | permeation enhancement (in words) [3] | increase of clonidine permeation over unenhanced counterpart ([4]; aqueous emulsion based matrix systems, Tables 7-1, 7-2, 7-3) | effectiveness as enhancer (in words) ([4]; clonidine HCl, aqueous emulsion based matrix systems) | effectiveness as enhancer (in words) ([4]; clonidine base, organic solvent based adhesive matrix, Table 7-4) | effectiveness as permeation enhancer (in words) [5] | increase in permeation, acid form of diclofenac ([1]; […] sodium lauroyl lactylate, Table 8-1) | effectiveness as enhancer (in words) ([1]; all of the matrix systems tested) | effectiveness as permeation enhancer (in words) [6] | effectiveness as permeation enhancer (in words) [7]
CCCCCCCCCCCC(=O)OC(C)C(=O)O (centres unmarked) [lauroyl lactylic acid, reference compound] | significant reduction in enhancement | somewhat comparable results | significant permeation enhancement | significant permeation enhancement |  |  |  |  |  |  |  | 
CCCCCCCCCCCC(=O)OC(C)C(=O)OC(C)C(=O)[O-].[Na+] (centres unmarked) [sodium lauroyl lactylate] |  |  | significant permeation enhancement | significant permeation enhancement | about two fold | consistently effective enhancer | not an effective enhancer | less effective as a permeation enhancer than the free acid form | about 50% | consistently effective enhancer |  | 
potassium lauroyl lactylate |  |  |  |  |  |  |  |  |  |  | not an effective permeation enhancers | unexpectedly effective permeation enhancer
